Test results: ChEMBL document CHEMBL4340555, “Synthesis and biological evaluation of 2-chloro-3-[(thiazol-2-yl)amino]-1,4-naphthoquinones” (Bioorg Med Chem Lett, 2019)
Converted amounts (≈) assume the structure as drawn. The source made the active and inactive calls. The calls are words filed in the database; no cut-off is given here.

Experiments:
[1] = tested on: HeLa; assay: Cytotoxicity against human HeLa cells assessed as cell viability at 20 uM after 24 hrs by resazurin based fluorescence assay relative to control; format: functional; conditions: read-out: Activity
[2] = tested on: Pseudomonas aeruginosa; assay: Antimicrobial activity against Pseudomonas aeruginosa assessed as zone of inhibition at 2000 uM/disk after 24 hrs by disk diffusion method; format: functional; conditions: for zone of inhibition at 2000 µM: read-out: DIZ
[3] = tested on: Pseudomonas aeruginosa; assay: Antimicrobial activity against Pseudomonas aeruginosa assessed as zone of inhibition at 1000 uM/disk after 24 hrs by disk diffusion method; format: functional; conditions: for zone of inhibition at 1000 µM: read-out: DIZ
[4] = tested on: Pseudomonas aeruginosa; assay: Antimicrobial activity against Pseudomonas aeruginosa assessed as zone of inhibition at 100 uM/disk after 24 hrs by disk diffusion method; format: functional; conditions: for zone of inhibition at 100 µM: read-out: DIZ
[5] = tested on: Pseudomonas aeruginosa; assay: Antimicrobial activity against Pseudomonas aeruginosa assessed as zone of inhibition at 10 uM/disk after 24 hrs by disk diffusion method; format: functional; conditions: for zone of inhibition at 10 µM: read-out: DIZ
[6] = tested on: Pseudomonas aeruginosa; assay: Antimicrobial activity against Pseudomonas aeruginosa assessed as zone of inhibition at 1 uM/disk after 24 hrs by disk diffusion method; format: functional
[7] = tested on: SH-SY5Y; assay: Cytotoxicity against human SH-SY5Y assessed as reduction in cell viability after 48 hrs by xCELLigence RTCA SP analysis; format: functional, cell-based
[8] = tested on: Mycobacterium tuberculosis; assay: Antitubercular activity against Mycobacterium tuberculosis H37Rv assessed as reduction in bacterial growth after 14 days by green fluorescent protein microplate assay; format: functional; conditions: 336 h
[9] = tested on: Mycobacterium tuberculosis; assay: Antitubercular activity against Mycobacterium tuberculosis H37Rv assessed as reduction in bacterial growth after 7 days by green fluorescent protein microplate assay; format: functional; conditions: 168 h
[10] = tested on: Plasmodium falciparum; assay: Antimalarial activity against Plasmodium falciparum 3D7 assessed as reduction in parasite viability at 20 uM by parasite lactate dehydrogenase released based colorimetric assay relative to control; format: functional
[11] = Lipophilicity, log P of the compound; format: physicochemical; conditions: octanol/water
[12] = tested on: Pseudomonas aeruginosa; assay: Antimicrobial activity against Pseudomonas aeruginosa assessed as zone of inhibition after 24 hrs by disk diffusion method; format: functional, organism-based
[13] = tested on: Plasmodium falciparum; assay: Antimalarial activity against Plasmodium falciparum 3D7 assessed as reduction in parasite viability by parasite lactate dehydrogenase release based colorimetric assay; format: functional, organism-based
[14] = tested on: Pseudomonas aeruginosa; assay: Antimicrobial activity against Pseudomonas aeruginosa assessed as zone of inhibition at 25 ug/disk after 24 hrs by disk diffusion method; format: functional; conditions: read-out: DIZ
[15] = tested on: Pseudomonas aeruginosa; assay: Antimicrobial activity against Pseudomonas aeruginosa assessed as zone of inhibition at 10 ug/disk after 24 hrs by disk diffusion method; format: functional; conditions: read-out: DIZ
[16] = tested on: Plasmodium falciparum; assay: Stimulation of parasite proliferation of Plasmodium falciparum 3D7 assessed as increase in parasite viability at 20 uM by parasite lactate dehydrogenase released based colorimetric assay relative to control; format: organism-based

Compound | viability at 20 µM [1] [%] | diameter of the inhibition zone (DIZ) [2] | diameter of the inhibition zone (DIZ) [3] | diameter of the inhibition zone (DIZ) [4] | diameter of the inhibition zone (DIZ) [5] | diameter of the inhibition zone (DIZ) [6] | Activity [7] | IC50 [7] [µM] | MIC99 [8] [µM] | MIC90 [9] [µM] | inhibition at 20 µM [10] [%] | logP [11] | zone of inhibition at 2000 µM [2] [mm] | zone of inhibition at 1000 µM [3] [mm] | zone of inhibition at 100 µM [4] [mm] | Activity [12] | further results
CCN(CC)CCCC(C)Nc1ccnc2cc(Cl)ccc12 (centres undefined) [CHLOROQUINE] | 3.6 | inactive | inactive | inactive | inactive | inactive |  |  |  |  |  |  |  |  |  |  | 
O=C1C(Cl)=C(Nc2nc(-c3ccc(Cl)cc3)cs2)C(=O)c2ccccc21 | 80 |  |  |  | inactive | inactive | Dose-dependent effect | 2.7 | > 20 | > 20 | 30 | < 5 | 12 | 9.7 | 7.6 | Dose-dependent effect | 
O=C1C(Cl)=C(Nc2nc(-c3ccc(Br)cc3)cs2)C(=O)c2ccccc21 | 55 | inactive | inactive | inactive | inactive | inactive | Dose-dependent effect |  | > 20 | > 20 | 80 to 90 | < 5 |  |  |  |  | IC50 [13]: 50.6 µM
CO[C@H]1/C=C/O[C@@]2(C)Oc3c(C)c(O)c4c(O)c(c(/C=N/N5CCN(C)CC5)c(O)c4c3C2=O)NC(=O)/C(C)=C\C=C\[C@H](C)[C@H](O)[C@@H](C)[C@@H](O)[C@@H](C)[C@H](OC(C)=O)[C@@H]1C [RIFAMPIN] |  |  |  |  |  |  |  |  | 0.00167 (≈ 0.00137 µg/mL) | 0.0015 (≈ 0.00123 µg/mL) |  |  |  |  |  |  | 
CC1(C)S[C@@H]2[C@H](NC(=O)[C@H](N)c3ccccc3)C(=O)N2[C@H]1C(=O)O [AMPICILLIN] |  |  |  |  |  |  |  |  |  |  |  |  |  |  |  |  | zone of inhibition at 25 µg/disc [14]: 24.7 mm
O=C1C(Cl)=C(Nc2nc(-c3ccc(F)cc3)cs2)C(=O)c2ccccc21 | 75 |  |  |  |  |  | Dose-dependent effect | 1.5 | 10.4 (≈ 4 µg/mL) | 9.37 (≈ 3.61 µg/mL) | 80 to 90 | < 5 | 19.5 | 15 | 11 | Dose-dependent effect | IC50 [13]: 44.7 µM; zone of inhibition at 10 µM [5]: 8 mm; zone of inhibition at 1 µM ([6]; read-out: DIZ): 5 mm
CN[C@@H]1[C@H](O[C@H]2[C@H](O[C@H]3[C@H](O)[C@@H](O)[C@H](N=C(N)N)[C@@H](O)[C@@H]3N=C(N)N)O[C@@H](C)[C@]2(O)C=O)O[C@@H](CO)[C@H](O)[C@H]1O [STREPTOMYCIN] |  |  |  |  |  |  |  |  |  |  |  |  |  |  |  |  | zone of inhibition at 10 µg/disc [15]: 20 mm
CCOC(=O)c1csc(NC2=C(Cl)C(=O)c3ccccc3C2=O)n1 | 82 | inactive | inactive | inactive | inactive | inactive | Dose-dependent effect | 31.1 | > 20 | 19.5 (≈ 7.07 µg/mL) | 40 | < 5 |  |  |  |  | 
O=C1C(Cl)=C(Nc2nc(-c3ccc([N+](=O)[O-])cc3)cs2)C(=O)c2ccccc21 | 80 |  |  |  | inactive | inactive | Dose-dependent effect |  | > 20 | > 20 | 80 to 90 | < 5 | 14.1 | 11 | 7.2 | Dose-dependent effect | IC50 [13]: 20.3 µM
O=C1C(Cl)=C(Nc2nc(-c3ccccc3)cs2)C(=O)c2ccccc21 | 80 |  |  |  |  | inactive | Dose-dependent effect | 1.8 | 10.2 (≈ 3.74 µg/mL) | 9.19 (≈ 3.37 µg/mL) | 10 | < 5 | 13.2 | 11.4 | 9.1 | Dose-dependent effect | zone of inhibition at 10 µM [5]: 5.3 mm
O=C(O)c1csc(NC2=C(Cl)C(=O)c3ccccc3C2=O)n1 | 75 | inactive | inactive | inactive | inactive | inactive | Dose-dependent effect | > 100 | > 20 | > 20 |  | < 5 |  |  |  |  | Activity [16]: 15%
